Data taken from patent EP0545912B1, “1-Biphenylmethylimidazole derivatives, their preparation and their therapeutic use” (Sankyo Company Limited, priority 1991, dated 1992).

The compounds below were run on All receptor (pressor response to angiotensin II) (assay: Evaluation of AII receptor blocking activity by inhibition of pressor response to angiotensin II). Details: dose inhibiting pressor response to intravenous angiotensin II (50 ng/kg) by fifty percent; anesthetized male Wister-Imamichi rats; test compound i.v., angiotensin II injected two minutes later; 2 min.
Assay type: in vivo
Description: Evaluation of All receptor blocking activity by Inhibition of pressor response to angiotensin II
The biological activity of each compound was assessed by determining the dose required to inhibit the pressor response to intravenous angiotensin II by fifty percent (ID50) in rats. Male Wister-Imamichi rats, each weighing 300 to 400 g, were anesthesized by intraperitoneal injection of 100 mg/Kg of sodium thiobutabarbital [Inactin (trade name)] and two cannulae were inserted: one into the femoral artery for measuring blood pressure and the other into the femoral vein for injecting drugs. Fifty ng/kg of angiotension II were intravenously administered at intervals of about 10 minutes, and the elevation of blood pressure (normally about 50 mmHg) was observed. After constant pressor responses to angiotensin II were obtained, a test compound was intravenously administered. Two minutes later, angiotension II was again injected, and the inhibitory effect of the test compound was estimated. The percent inhibitions of the pressor response to angiotensin II by progressive increase of the test compound was used to calculate the value of ID50. Angiotensin II was used in this test dissolved in 0.5 % bovine serum albumin (BSA) and the test compounds were dissolved in 100% dimethyl sulphoxide (DMSO).
In addition to the compounds of the invention (which are identified hereafter by the number of the one of the following Examples which illustrates their preparation), we also carried out the same experiment using a prior art compound (identified in the Table as "compound A"), which is 2-[4-(2-butyl-5-chloro-4-chloromethylimidazoll-ylmethyl)phenyl]benzoic acid, which is disclosed in Example 118 of European Patent Publication No. 253 310.
CCCCc1nc(C(O)C(C)(C)C)c(C(N)=O)n1Cc1ccc(-c2ccccc2C(=O)O)cc1 (stereo not shown) [Example 59, 2-Butyl-1-[(2'-carboxybiphenyl-4-yl)methyl]-4-(1-hydroxy-2,2-dimethylpropyl)imidazole-5-carboxamide] was tested, and the ID50 was 0.066 mg/kg, i.v.
For CCCc1nc(C(O)C(C)(C)C)c(C(N)=O)n1Cc1ccc(-c2ccccc2-c2nnn[nH]2)cc1 (stereo not shown) [Example 74, 4-(1-Hydroxy-2,2-dimethylpropyl)-2-propyl-1-{4-[2-(tetrazol-5-yl)phenyl]phenyl}methylimidazole-5-carboxamide], the ID50 was 0.036 mg/kg, i.v.
CCCCc1nc(CO)c(C(=O)O)n1Cc1ccc(-c2ccccc2C(=O)O)cc1 [Example 5, 2-Butyl-1-[(2'-carboxybiphenyl-4-yl)methyl]-4-hydroxymethylimidazole-5-carboxylic acid] was tested, and the ID50 was 0.22 mg/kg, i.v.
With CCCCc1nc(CCl)c(Cl)n1Cc1ccc(-c2ccccc2C(=O)O)cc1 [compound A, 2-[4-(2-butyl-5-chloro-4-chloromethylimidazoll-ylmethyl)phenyl]benzoic acid, reference compound] the ID50 was 3.3 mg/kg, i.v.
CCCCc1nc(CO)c(C(=O)NCC(=O)O)n1Cc1ccc(-c2ccccc2C(=O)O)cc1 [Example 55, N-Carboxymethyl-2-butyl-1-[(2'-carboxybiphenyl-4-yl)-methyl]-4-hydroxymethylimidazole-5-carboxamide] was tested, and the ID50 was 0.23 mg/kg, i.v.
In the case of CCCCc1nc(C(C)O)c(C(=O)O)n1Cc1ccc(-c2ccccc2C(=O)O)cc1 (stereo not shown) [Example 11, 2-Butyl-1-[(2'-carboxybiphenyl-4-yl)methyl]-4-(1-hydroxyethyl) imidazole-5-carboxylic acid], the ID50 is reported as 0.25 mg/kg, i.v.
With CCCCc1nc(C(O)C(C)(C)C)c(C(N)=O)n1Cc1ccc(-c2ccccc2-c2nnn[nH]2)cc1 (stereo not shown) [Example 75, 2-Butyl-4-(1-hydroxy-2,2-dimethylpropyl)-1-{4-[2-(tetrazol-5-yl)phenyl]phenyl}methylimidazole-5-carboxamide] the ID50 was 0.11 mg/kg, i.v.
With CCCCc1nc(C(O)C(C)C)c(C(N)=O)n1Cc1ccc(-c2ccccc2C(=O)O)cc1 (stereo not shown) [Example 48, 2-Butyl-1-[(2'-carboxybiphenyl-4-yl)methyl]-4-(1-hydroxy-2-methylpropyl)imidazole-5-carboxamide] the ID50 was 0.064 mg/kg, i.v.
With CCCCc1nc(C(C)O)c(C(N)=O)n1Cc1ccc(-c2ccccc2C(=O)O)cc1 (stereo not shown) [Example 45, 2-Butyl-1-[(2'-carboxybiphenyl-4-yl)methyl]-4-(1-hydroxyethyl) imidazol-5-carboxamide] the ID50 was 0.19 mg/kg, i.v.
In the case of CCCCc1nc(C(C)O)c(C(=O)O)n1Cc1ccc(-c2ccccc2-c2nnn[nH]2)cc1 (stereo not shown) [Example 44, 2-Butyl-4-(1-hydroxyethyl)-1-{4-[2-(tetrazol-5-yl)phenyl]phenyl}methylimidazole-5-carboxylic acid], the ID50 is reported as 0.0082 mg/kg, i.v.
With CCCc1nc(CO)c(C(=O)O)n1Cc1ccc(-c2ccccc2-c2nnn[nH]2)cc1 [Example 36, 4-Hydroxymethyl-2-propyl-1-{4-[2-(tetrazol-5-yl)phenyl]phenyl}methylimidazole-5-carboxylic acid] the ID50 was 0.0062 mg/kg, i.v.
For CCCCc1nc(CO)c(C(=O)O)n1Cc1ccc(-c2ccccc2-c2nnn[nH]2)cc1 [Example 39, 2-Butyl-4-hydroxymethyl-1-{4-[2-(tetrazol-5-yl)-phenyl]phenyl}methylimidazole-5-carboxylic acid], the ID50 was 0.010 mg/kg, i.v.
In the case of CCCCc1nc(C(O)CC)c(C(N)=O)n1Cc1ccc(-c2ccccc2C(=O)O)cc1 (stereo not shown) [Example 46, 2 -Butyl-1-[(2'-carboxybiphenyl-4-yl)methyl]-4-(1-hydroxypropyl)imidazole-5-carboxamide], the ID50 is reported as 0.18 mg/kg, i.v.
In the case of CCCc1nc(C(C)O)c(C(=O)O)n1Cc1ccc(-c2ccccc2-c2nnn[nH]2)cc1 (stereo not shown) [Example 41, 4-(1-Hydroxyethyl)-2-propyl-1-{4-[2-(tetrazol-5-yl)phenyl]phenyl}methylimidazole-5-carboxylic acid], the ID50 is reported as 0.0063 mg/kg, i.v.
With CCCc1nc(C(O)C(C)C)c(C(N)=O)n1Cc1ccc(-c2ccccc2-c2nnn[nH]2)cc1 (stereo not shown) [Example 76, 4-(1-Hydroxy-2-methylpropyl)-2-propyl-1-{4-[2-(tetrazol-5-yl)phenyl]phenyl}methylimidazole-5-carboxamide] the ID50 was 0.022 mg/kg, i.v.
With CCCc1nc(C(O)C(C)(C)C)c(C(N)=O)n1Cc1ccc(-c2ccccc2C(=O)O)cc1 (stereo not shown) [Example 60, 1-[(2'-Carboxybiphenyl-4-yl)methyl]-4-(1-hydroxy-2,2-dimethylpropyl)-2-propylimidazole-5-carboxamide] the ID50 was 0.134 mg/kg, i.v.
